For series [1], the system named is CASTOR1 protein level in 293T cells. In words: CASTOR1 protein level by immunoblotting after chemical treatment. It is filed as cell-based, human. As to conditions: for Flag-CASTOR1 S14D protein level: 293T cells stably expressing Flag-CASTOR1 S14D; for Flag-CASTOR1 S14D protein level / Flag-CASTOR1 WT and S14A protein level: FIG. 10B-10D; for Flag-CASTOR1 WT and S14A protein level: 293T cells stably expressing Flag-CASTOR1 WT or S14A. The method, then:
(§1) Cell culture and transfection: 293T cells obtained from ATCC (CRL-3216) were maintained in DMEM supplemented with 10% FBS. MCF7, T47D, HCC1569, and HCC202 cells were obtained from Dr. Xiaosong Wang at the University of Pittsburgh, and cultured in RPMI1640 with 10% FBS. MM cells were cultured in DMEM plus 10% FBS, while KMM cells were cultured in DMEM plus 10% FBS and 10 μg/ml hygromycin. HSAEC (FC-0016) and HLBEC (FC-0054) cells were purchased from Lifeline and cultured with the BronchiaLife™ Epithelial Airway Medium Complete Kit (Lifeline LL-0023). All cells were maintained at 37 C° in 5% CO2.
(§2) For amino acid deprivation and re-stimulation to assess mTORC1 activation, cells were incubated in EBSS medium (Thermo 24010043) for 50 min and then stimulated by adding arginine (Sigma A5131) at the indicated concentration. For ubiquitination assays, cells were deprived of FBS or arginine, or treated with 10 μM MK2206 (Selleckem S1078) overnight before immunoprecipitation and immunoblotting, or re-stimulated with FBS or arginine for 12 h before analysis.
For chemical treatments, CHX (CST 2112) or MG132 (Sigma M8699) dissolved in DMSO (VWR 97061-250) was diluted in medium to a specified concentration. Medium containing MG132 or CHX was then used to replace the original medium, and cells were cultured in the presence of MG132 for a specified time.
Immunoblotting analysis: To detect all proteins except CASTOR1, samples were separated with 4%-20% SDS-polyacrylamide gels (Genscript M00656 and M00657). To detect CASTOR1 protein, samples were resolved with 10% SDS-polyacrylamide gels (Genscript M00665 and M00666). Proteins resolved in gels were then transferred to nitrocellulose membranes (GE Healthcare 10600004), which were incubated with primary and secondary antibodies overnight and for 1 h at room temperature, respectively. The signals were developed using the Luminiata Crescendo Western HRP Substrate (EMD Millipore WBLUR0500) and SuperSignal West Femto Maximum Sensitivity Substrate (Thermo 34096) or fluorescence secondary antibodies. The images were recorded with a ChemiDoc MP Imaging System (Bio-Rad 17001402) at either Chemi, Dylight 500, DyLight 800, or StarBright B700 channels.

A further series has as its system CASTOR1 mRNA. In words: CASTOR1 mRNA level by RT-qPCR. It is filed as cell-based, human. The conditions noted are these: 293T cells, FIG. 6K. An excerpt: Reverse transcription real-time quantitative polymerase-chain reaction (RT-qPCR): Total RNA was extracted by using TRI Reagent (Sigma T9424) based on the manufacturer's instructions. Total RNA was subjected to reverse transcription using the Maxima H Minus First Strand cDNA Synthesis Kit (Thermo K1652). SsoAdvanced™ Universal SYBR® Green Supermix Kit (Bio-Rad 172-5272) was applied for qPCR analysis. The relative mRNA levels were normalized to a house-keeping gene, which yielded 2^−ΔΔCt values. For qPCR reaction, each sample was run in triplicates with cycle threshold (Ct) values within 0.5 Ct differences among the triplicates. The primers used for gene expression were 5′[…]3′ (forward; SEQ ID NO: 22) and 5′[…]3′ (reverse; SEQ ID NO: 23) for human CASTOR1; and […] (forward; SEQ ID NO: 24) and […] (reverse; SEQ ID NO: 25) for human β-actin.

Series [2] concerns CASTOR1 phosphorylation at S14. In words: CASTOR1 phosphorylation at the AKT consensus motif (S14), immunoprecipitation and immunoblotting. As to conditions: Flag-CASTOR1 in cells, FIG. 2C. It is filed as cell-based, human. The method, then:
as §2
Immunoprecipitation. Cells were lysed in lysis buffer (50 mM Tris-HCl, with 150 mM NaCl, 1 mM EDTA, and 1% Triton X-100, pH 7.4) supplemented with a complete protease inhibitor cocktail (Thermo 78438) and phosphatase inhibitor (Thermo 78427), followed by centrifugation at 4° C. for 5 min. […]
(§3) Immunoblotting analysis: To detect all proteins except CASTOR1, samples were separated with 4%-20% SDS-polyacrylamide gels (Genscript M00656 and M00657). […] The signals were developed using the Luminiata Crescendo Western HRP Substrate (EMD Millipore WBLUR0500) and SuperSignal West Femto Maximum Sensitivity Substrate (Thermo 34096) or fluorescence secondary antibodies. The images were recorded with a ChemiDoc MP Imaging System (Bio-Rad 17001402) at either Chemi, Dylight 500, DyLight 800, or StarBright B700 channels.
(Immunoblotting shows a protein as a band on a membrane.)

The next series has as its system mTORC1. In words: mTORC1 activation status (pS6K, p4EBP1) by immunoblotting. It is filed as cell-based, human. As to conditions: 293T cells, FIG. 1C. The protocol: as §1
For amino acid deprivation and re-stimulation to assess mTORC1 activation, cells were incubated in EBSS medium (Thermo 24010043) for 50 min and then stimulated by adding arginine (Sigma A5131) at the indicated concentration. […]
as §3

The target in another series is T1, AKT1 (Homo sapiens, UniProt P31749).
T1 construct: purchased Novus Biologicals 1775-KS (GST-AKT1); H00652968-P01 (GST-CASTOR1)
T1 sequence (P31749 whole entry): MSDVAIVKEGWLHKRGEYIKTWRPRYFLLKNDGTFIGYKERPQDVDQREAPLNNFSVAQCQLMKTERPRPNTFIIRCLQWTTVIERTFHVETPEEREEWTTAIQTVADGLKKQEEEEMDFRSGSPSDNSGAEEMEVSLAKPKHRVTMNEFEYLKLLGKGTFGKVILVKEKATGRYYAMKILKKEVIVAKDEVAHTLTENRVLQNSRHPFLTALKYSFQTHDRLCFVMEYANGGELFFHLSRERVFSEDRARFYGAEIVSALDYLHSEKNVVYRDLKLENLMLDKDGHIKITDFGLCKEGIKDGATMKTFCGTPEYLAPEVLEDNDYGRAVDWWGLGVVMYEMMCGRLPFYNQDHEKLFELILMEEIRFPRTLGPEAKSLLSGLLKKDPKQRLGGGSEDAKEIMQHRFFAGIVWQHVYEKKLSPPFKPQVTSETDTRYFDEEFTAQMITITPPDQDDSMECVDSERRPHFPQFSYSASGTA
Nature of the series: In vitro kinase assay, GST-AKT1 phosphorylation of GST-CASTOR1. It is filed as biochemical. As to conditions: in the presence of ATP, FIG. 2D. The protocol:
In vitro kinase assay: Recombinant GST-AKT1 protein (Novus Biologicals, 1775-KS) was mixed with GST-CASTOR1 protein (Novus Biologicals, H00652968-P01) in a 30 μl reaction mixture at room temperature for 1 h. The reaction mixture contained protease inhibitors, 100 mM HEPES (pH 7.4), 150 mM NaCl, 50 mM MgCl2,1 mM DTT, 0.01% NaN3, 1 mM ATP, 0.2 μg GST-AKT1 and 1 μg GST-CASTOR1.

The next series concerns ER+ breast cancer cells. In words: Endogenous CASTOR1 protein level in ER+ breast cancer cells by immunoblotting. It is filed as cell-based, human. As to conditions: FIG. 13D. The protocol: as §1
as §3, with “M00657). To detect CASTOR1 protein, samples were resolved with 10% SDS-polyacrylamide gels (Genscript M00665 and M00666).” for “M00657).”

In series [3] the target is human CASTOR1 wild type (Flag-CASTOR1 WT) (UniProt Q8WTX7).
Series [4] concerns the target T2, recombinant GST-CASTOR1 protein (Novus Biologicals, H00652968-P01) (UniProt Q8WTX7).
T2 sequence: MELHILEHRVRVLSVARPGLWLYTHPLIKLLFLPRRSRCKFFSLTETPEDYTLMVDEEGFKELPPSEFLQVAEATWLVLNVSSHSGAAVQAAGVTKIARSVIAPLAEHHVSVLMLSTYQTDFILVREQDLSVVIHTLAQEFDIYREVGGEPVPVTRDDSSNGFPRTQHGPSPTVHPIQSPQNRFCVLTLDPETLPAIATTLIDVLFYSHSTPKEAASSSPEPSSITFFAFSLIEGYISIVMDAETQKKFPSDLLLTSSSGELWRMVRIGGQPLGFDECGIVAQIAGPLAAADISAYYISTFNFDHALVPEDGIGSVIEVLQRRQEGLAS

Series [5] concerns the molecule itself. In words: dimerization assay, method not described (FIG. 33).

Experimental findings from patent US20230357430A1, “RNF167 AND CASTOR1 AS NOVEL MTOR TARGETS” (UNIVERSITY OF PITTSBURGH - OF THE COMMONWEALTH SYSTEM OF …, priority 2020, published 2023) are described below.

Entries after “also recorded” stand apart in the source; their conditions may differ. Peptide text beside a SMILES is read from it. * marks the point of attachment. Cbz = O=C(OCc1ccccc1)*

With `C[C@@H]1C[C@@H]([C@H](O)CC2CC(=O)NC(=O)C2)C(=O)[C@@H](C)C1` [CHX, cycloheximide], in series [1], the “Flag-CASTOR1 S14D protein level” value is “reduced”; the “Flag-CASTOR1 WT and S14A protein level” value was “minimal effects on WT and S14A”.
In the case of `CC(C)C[C@@H](C=O)NC(=O)[C@H](CC(C)C)NC(=O)[C@H](CC(C)C)NC(=O)OCc1ccccc1` [MG132] (Cbz-Leu-Leu-Leu-aldehyde), the “accumulation of CASTOR1 protein” value in series [1] (293T cells co-transfected with Flag-CASTOR1 and myr-HA-AKT1, FIG. 9H) was “increased the accumulation of CASTOR1 protein”. Besides, in [1], the “Flag-CASTOR1 S14D protein level” value is “increased S14D protein level”; the “Flag-CASTOR1 WT and S14A protein level” value is “minimal effects on WT and S14A”. Besides, the “RNF167-mediated downregulation of CASTOR1 protein” value in [1] (RNF167 overexpression, FIG. 7H) is reported as “partially rescues”. In addition, in series [1] (cells expressing Flag-CASTOR1 and the vector control, FIG. 9H), the “accumulation of CASTOR1 protein” value is given as “only had a marginal effect”.
Turning to `NC1(c2ccc(-c3nc4ccn5c(=O)[nH]nc5c4cc3-c3ccccc3)cc2)CCC1` [MK2206], the “CASTOR1 mRNA level” value in the series with CASTOR1 mRNA is “but not mRNA level”. In addition, the “specific phosphorylation of the AKT motif of CASTOR1 (S14)” value in [2] is reported as “significantly reduced the specific phosphorylation of the AKT motif”. For the same molecule, the mTORC1 activation entry in the series with mTORC1 is given as “decreased mTORC1 activation”. Moreover, the “phosphorylation of purified GST-CASTOR1 by purified GST-AKT1” value at AKT1 is given as “abolished”. Also, in the series with ER+ breast cancer cells, the “endogenous CASTOR1 protein level” value is reported as “enhanced; also recorded: increases the endogenous CASTOR1 protein level”. Further, in series [1] (293T cells, FIG. 1C), the CASTOR1 protein level entry was “upregulated CASTOR1 protein”.
Regarding RING finger protein 167 (RNF167), in [3], the CASTOR1 ubiquitination result is on record as “only RNF167 increased CASTOR1 ubiquitination”.
Regarding “recombinant GST-AKT1 protein (Novus Biologicals, 1775-KS)”, in series [4], the “in vitro kinase assay: phosphorylation of GST-CASTOR1” value is reported as “efficiently phosphorylated purified GST-tagged CASTOR1 (GST-CASTOR1) recombinant protein only in the presence of ATP, which was abolished by AKT inhibitor MK2206”.

B1: human CASTOR1 wild type (Flag-CASTOR1 WT) (other, UniProt Q8WTX7 1-329, looked up)
chain: T2 sequence
notes: Expressed in cells and pulled down from lysates; also called HA-CASTOR1; cytosolic arginine sensor for mTORC1 subunit 1; not shown: N-terminal Flag tag
Take B1: the binding result in [5] is given as “binds”.
